Laboratory results taken from patent US10981932B2, “Macrocyclic indole derivatives” (Bayer Aktiengesellschaft, priority 2016, dated 2021).
Several values for one entry are separate records, joined by “and”; a condition that tells them apart may be missing. Identical values can stand only once. Like-named read-outs stand apart in the source and are kept apart here. Values belong to the compound of their own block, whether it stands above or below them.

Legend:
[1] = system: SUDHL5
[2] = system: MV-4-11; experiment: Anti-proliferative effect (CellTiter-Glo, 72 h), MV-4-11; type: cell-based; details: MV-4-11 cells, median, read-out: IC50 antiproliferation assay MV-4-11 [M] (median)
Method in brief: (§1)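 Luminescence from CellTiter-Glo, read 10 min after reagent addition, reports viable cell content after 72 h of compound treatment at 37 °C. A reference plate read at day 0 gives the starting baseline.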

[3] = system: SUDHL5; experiment: Anti-proliferative effect (CellTiter-Glo, 72 h), SUDHL5; type: cell-based; details: SUDHL5 cells, antiproliferation, median, read-out: Antiproli SUDHL5 [M] (median)
Method in brief: as §1

[4] = system: A2780; experiment: Anti-proliferative effect (CellTiter-Glo, 72 h), A2780; type: cell-based; details: A2780 cells, median, read-out: IC50 antiproliferation assay A2780 [M] (median)
Method in brief: as §1

[5] = target: SUDHL5; experiment: Induction of caspase-3/7 activity (Caspase-Glo 3/7), SUDHL5; type: cell-based; details: caspase-3/7 induction, SUDHL5 cells, 3 h treatment; median
Method in brief: (§2)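 Apoptosis induction measured as caspase-3/7 activity (Caspase-Glo 3/7) in DLBCL lines after 3 h treatment at 37 °C; EC50 derived relative to the reference compound's maximal induction, with C0 fixed at 1.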

[6] = target: SUDHL10; experiment: Induction of caspase-3/7 activity (Caspase-Glo 3/7), SUDHL10; type: cell-based; details: caspase-3/7 induction, SUDHL10 cells, 3 h treatment; median
Method in brief: as §2

[7] = target: MCL-1 (Homo sapiens, UniProt Q07820); experiment: Protein-protein interaction assay MCL-1/Noxa BH3 peptide (MCL-1 assay), TR-FRET; type: binding; details: MBP-MCL-1 / Noxa BH3-derived peptide, median
Method in brief: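 Inhibition values were normalized between DMSO controls with all reagents and controls lacking MCL-1. The binding competition used 1 nM MBP-MCL-1 in pH 7 Tris buffer containing 50 mM KF and 100 mM NaCl, with a 10 min compound preincubation at 22 °C.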

[8] = system: SUDHL10
[9] = system: OPM2; experiment: Anti-proliferative effect (CellTiter-Glo, 72 h), OPM2; type: cell-based; details: OPM2 cells, median, read-out: IC50 antiproliferation assay OPM2 [M] (median)
Method in brief: as §1

[10] = system: SUDHL10; experiment: Anti-proliferative effect (CellTiter-Glo, 72 h), SUDHL10; type: cell-based; details: SUDHL10 cells, antiproliferation, 72 h incubation, median, read-out: Antiproli SUDHL10 [M] (median)
Method in brief: as §1

Chain of MCL-1 (Q07820 whole entry): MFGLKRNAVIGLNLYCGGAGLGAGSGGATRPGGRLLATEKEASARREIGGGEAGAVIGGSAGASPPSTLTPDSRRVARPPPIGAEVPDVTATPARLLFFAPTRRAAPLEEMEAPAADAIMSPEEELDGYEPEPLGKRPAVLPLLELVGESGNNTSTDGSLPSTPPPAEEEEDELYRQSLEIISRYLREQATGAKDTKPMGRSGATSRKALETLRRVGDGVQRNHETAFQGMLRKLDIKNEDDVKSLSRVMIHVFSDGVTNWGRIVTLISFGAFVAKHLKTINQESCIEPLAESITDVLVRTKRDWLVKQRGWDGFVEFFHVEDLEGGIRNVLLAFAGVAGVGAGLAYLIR

Compound: Cc1c2c(nn1CC(F)(F)F)COCCCCn1c(C(=O)O)c(CCCOc3cccc4ccccc34)c3cccc-2c31 [Example 242, 3-methyl-7-[3-(naphthalen-1-yloxy)propyl]-2-(2,2,2-trifluoroethyl)-2,10,11,12,13,15-hexahydropyrazolo[4′,3′:9,10][1,6]oxazacycloundecino[8,7,6-hi]indole-8-carboxylic Acid]
IC50 [1]: > 33 µM | IC50 ([3]; 72 h incubation): 1.52e-06 M | IC50 [4]: 2.59e-06 M | EC50 [5]: > 33 µM | EC50 [6]: > 33 µM | IC50 [10]: 2.74e-06 M | IC50 [7]: 0.258 µM | IC50 [8]: > 33 µM

Compound: Cn1nc(CN2CCOCC2)c2c1COCCCn1c(C(=O)O)c(CCCOc3cccc4ccccc34)c3cccc-2c31 (single isomer, unassigned; enantiomer 1) [Example 139, 9-methyl-11-(morpholin-4-ylmethyl)-1-[3-(naphthalen-1-yloxy)propyl]-5,6,8,9-tetrahydro-4H-pyrazolo[4′,3′:8,9][1,5]oxazecino[7,6,5-hi]indole-2-carboxylic Acid (Enantiomer 1)]
IC50 [1]: > 33 µM | IC50 [4]: > 3.3e-05 M | EC50 [5]: > 33 µM | EC50 [6]: > 33 µM | IC50 [9]: > 3.3e-05 M | IC50 [10]: 2.67e-05 M | IC50 [7]: 0.0422 µM | IC50 [8]: > 33 µM

Compound: Cn1nc(CN2CCOCC2)c2c1COCCCn1c(C(=O)O)c(CCCOc3cccc4ccccc34)c3cccc-2c31 (single isomer, unassigned; enantiomer 2) [Example 140, 9-methyl-11-(morpholin-4-ylmethy)-1-[3-(naphthalen-1-yloxy)propyl]-5,6,8,9-tetrahydro-4H-pyrazolo[4′,3′:8,9][1,5]oxazecino[7,6,5-hi]indole-2-carboxylic Acid (Enantiomer 2)]
IC50 [1]: 16.7 µM | IC50 [2]: 2.27e-05 M | IC50 ([3]; 72 h incubation): 1.17e-05 M | IC50 [4]: > 3.3e-05 M | EC50 [5]: 14.9 µM | EC50 [6]: 20.3 µM and > 33 µM | IC50 [9]: > 3.3e-05 M | IC50 [10]: 1.79e-05 M | IC50 [7]: 0.0114 µM

Further lines, with some results ahead:

IC50 [1]: 30.9 µM | IC50 [2]: 2e-05 M | IC50 ([3]; 72 h): 7.48e-06 M | IC50 [4]: 1.05e-05 M | EC50 [5]: > 33 µM | EC50 [6]: > 33 µM | IC50 [7]: 0.0999 µM | IC50 [8]: 27.1 µM
Compound: CCc1nn(C)c2c1-c1cccc3c(CCCOc4cccc5cc(C(F)(F)F)ccc45)c(C(=O)O)n(c13)CCCCOC2 (racemic) [Example 313, (rac)-12-ethyl-10-methyl-1-(3-((6-(trifluoromethyl)naphthalen-1-yl)oxy)propyl)-4,5,6,7,9,10-hexahydropyrazolo[4′,3′:9,10][1,6]oxaazacycloundecino[8,7,6-hi]indole-2-carboxylic Acid]

IC50 [1]: 27.3 µM | IC50 ([3]; 72 h incubation): 1.68e-05 M | IC50 [4]: 3.19e-05 M | EC50 [5]: 27.9 µM | EC50 [6]: > 33 µM | IC50 [10]: 1.51e-05 M | IC50 [7]: 0.0845 µM | IC50 [8]: > 33 µM
Compound: CN1CCCn2c(C(=O)O)c(CCCOc3cccc4ccccc34)c3cccc(c32)-c2c(CCN3CCOCC3)nn(C)c2C1 (single isomer, unassigned; enantiomer 2) [Example 126, 7,9-dimethyl-11-[2-(morpholin-4-yl)ethyl]-1-[3-(naphthalen-1-yloxy)propyl]-4,5,6,7,8,9-hexahydropyrazolo[3′,4′:7,8][1,5]diazecino[9,10,1-hi]indole-2-carboxylic Acid (Enantiomer 2)]
IC50 [9]: > 3.3e-05 M

IC50 [1]: > 33 µM | IC50 [4]: > 3.3e-05 M | EC50 [5]: > 33 µM | EC50 [6]: > 33 µM | IC50 [10]: 8.9e-06 M | IC50 [7]: 0.0228 µM | IC50 [8]: > 33 µM
Compound: Cn1nc(CN2CCOCC2)c2c1COCCCCn1c(C(=O)O)c(CCCOc3cccc4ccccc34)c3cccc-2c31 (single isomer, unassigned; enantiomer 1) [Example 136, 1-methyl-3-(morpholin-4-ylmethyl)-7-[3-(naphthalen-1-yloxy)propyl]-1,10,11,12,13,15-hexahydropyrazolo[4′,3′:9,10][1,6]oxazacycloundecino[8,7,6-hi]indole-8-carboxylic Acid (Enantiomer 1)]
IC50 [9]: > 3.3e-05 M
